In paper PMC9464843, “Escitalopram co-prescription in anastrozole-treated breast cancer patients” (Northern Clinics of Istanbul, 2022):
Like-named read-outs stand apart in the source and are kept apart here. One block for each compound: values may come before it.

Tests used:
[1] = cited from earlier work
CYP2D6 [2] = conditions: cited from earlier work; for Ability to inhibit the CYP2D6 enzyme: SSRI antidepressants
CYP2C19 = test system: CYP2C19; set-up: method as in PMID 11454728; conditions: cited from earlier work
[3] = Completion / discontinuation of 1-month escitalopram treatment; assay type: in vivo, human (post-menopausal breast cancer patients); conditions: n=24
Procedure: (§1) Data on age, body mass index (BMI; kg/m^2), stage of tumor, previous anti-neoplastic treatments, and concomitant medications were collected in each patient at study enrollment. Blood samples were collected twice, before and 1-month after the onset of escitalopram treatment to analyze change in plasma anastrozole as well as estradiol levels under escitalopram treatment. Anastrozole levels were also analyzed with respect to baseline characteristics including age (≤57 years vs. >57 years), BMI (≤29.9 kg/m^2 vs. >29.9 kg/m^2), radiotherapy (left vs. right breast, the side indicates the affected organs, none), chemotherapy (applied vs. none), tamoxifen (applied vs. none), tumor stage, estradiol levels (≤10 pg/mL vs. >10 pg/mL), concomitant medications (present vs. none) and in patients discontinued versus continued 1-month escitalopram treatment.
Patients were on anastrozole (1 mg/day) for at least 1 month (30±2 days), while escitalopram was initiated with a dose of 10 mg/day for the first 7 days and then the dose was gradually elevated to 20 mg/day to enable tolerance.

adrenergic receptors = test system: adrenergic receptors; set-up: method as in PMID 16266205; conditions: cited from earlier work
CYP3A4 = test system: CYP3A4; set-up: method as in PMID 11454728; conditions: cited from earlier work
serum estradiol = assay: Serum estradiol levels before and after escitalopram; assay type: in vivo, human (post-menopausal breast cancer patients)
Procedure: as §1

cholinergic receptors = test system: cholinergic receptors; set-up: method as in PMID 16266205; conditions: cited from earlier work
CYP 1A2 = test system: CYP 1A2; set-up: method as in PMID 17375980; conditions: cited from earlier work
[4] = test system: depression-related symptoms; set-up: method as in PMID 22142651; conditions: escitalopram 5–20 mg/day; breast cancer patients; cited from earlier work
[5] = set-up: method as in earlier work; conditions: escitalopram 20 mg daily for 12 weeks; hot flushes; cited from earlier work
CYP 3A4 = test system: CYP 3A4; set-up: method as in PMID 17375980; conditions: cited from earlier work
[6] = Liver and kidney functions after escitalopram; assay type: in vivo, human (post-menopausal breast cancer patients); conditions: continuers n=17; 1 month escitalopram with anastrozole
CYP 2C9 = test system: CYP 2C9; set-up: method as in PMID 17375980; conditions: cited from earlier work
CYP2D6 [7] = test system: CYP2D6; set-up: method as in PMID 11454728; conditions: cited from earlier work
CYP 2C19 = test system: CYP 2C19; set-up: method as in PMID 17375980; conditions: cited from earlier work
histaminergic receptors = test system: histaminergic receptors; set-up: method as in PMID 16266205; conditions: cited from earlier work
clinical = conditions: female, human, in vivo
Procedure: (§2) A total of 24 operated post-menopausal breast cancer patients who were co-prescribed with escitalopram while taking anastrozole for at least 1 month were included in this study. The inclusion criteria were being on anastrozole treatment (1 mg/day) for at least 1 month (30±2 days), being younger than age of 75, having no implementation of radiotherapy or chemotherapy in the past 3 months before the study enrollment and having normal renal and hepatic functions.
(§3) Plasma anastrozole levels were measured twice, once before and once 1 month (30±2 days) after the onset of escitalopram by high-performance liquid chromatography (HPLC). The blood samples were centrifuged at 4500 g for 5 min within the 1 hour following the sampling and stored at -80°C until analysis. The plasma samples were extracted by using diethyl ether:dichloromethane (80:20, v:v) and high-performance liquid chromatography analyses were performed in Agilent Triple Quadrupole Mass Spectrometry system. A reverse phase C18 column (poroshell SB-C18, 2.7µm, 3.0 × 100 mm) was used within the system. The mobile phase was comprised of 5 mM ammonium acetate and acetonitrile at a ratio of 15:85 (v:v). Tolterodine was used as an internal standard. The external standard calibration interval was 0.5–50 ng/mL (r^2: 0.9930). Before analysis, 5 mL venous blood samples were collected into Na-EDTA-containing glass tubes and the blood samples were centrifuged at 4500 g for 5 min within an hour following the sampling and stored at -80°C until analysis.
(§4) The time between the last dose of anastrozole and blood sampling was recorded. As there was a variation between the last anastrozole dose and the blood sampling time, the maximum plasma concentrations (Cmax) were extrapolated by using the following pharmacokinetic formula:

[8] = breast cancer patients, cited from earlier work
[9] = female, human, in vivo
Procedure: as §2, §3, §4

[10] = under anastrozole 1 mg/day, n=24

Compound: NC(=O)N1c2ccccc2C=Cc2ccccc21 [Carbamazepine]
- Carbamazepine clearance, non-obese versus obese patients [1]: marginally higher
- Carbamazepine clearance after major weight loss ([1]; six obese patients): significantly increased

- Patients who completed the 1-month escitalopram treatment [3]: 70.8%
- Patients who discontinued escitalopram within the 1st week of treatment ([3]; 10 mg/day first 7 days): 29.2%
- Change in liver and kidney functions after escitalopram administration [6]: No significant change
Compound: CN(C)CCC[C@@]1(c2ccc(F)cc2)OCc2cc(C#N)ccc21 [escitalopram]
- Ability to inhibit the CYP2D6 enzyme (CYP2D6 [2]): weak inhibition
- Inhibition of CYP 2D6 (CYP2D6 [2]): weak or negligible inhibition
- Share of CYP2C19 in bio-transformation of escitalopram (CYP2C19): 37%
- Affinity for adrenergic receptors (adrenergic receptors): low affinity
- Share of CYP3A4 in bio-transformation of escitalopram (CYP3A4): 35%
- Change in estradiol levels after escitalopram administration (serum estradiol; continuers n=17, 1 month escitalopram with anastrozole): no change
- Affinity for cholinergic receptors (cholinergic receptors): low affinity
- Inhibition of CYP 1A2 (CYP 1A2): weak or negligible inhibition
- Time to amelioration of depression-related symptoms [4]: ≤ 1 week
- Patients who discontinued treatment due to side effects such as nausea and somnolence [5]: 14%
- Inhibition of CYP 3A4 (CYP 3A4): weak or negligible inhibition
- Inhibition of CYP 2C9 (CYP 2C9): weak or negligible inhibition
- Share of CYP2D6 in bio-transformation of escitalopram (CYP2D6 [7]): 28%
- Inhibition of CYP 2C19 (CYP 2C19): weak or negligible inhibition
- Affinity for histaminergic receptors (histaminergic receptors): low affinity

Compound: Fc1ccc([C@@H]2CCNC[C@H]2COc2ccc3c(c2)OCO3)cc1 [paroxetine]
- Ability to inhibit the CYP2D6 enzyme (CYP2D6 [2]): strong inhibition

Compound: CN(C)CCCC1(c2ccc(F)cc2)OCc2cc(C#N)ccc21 (stereo not drawn) [citalopram]
- Ability to inhibit the CYP2D6 enzyme (CYP2D6 [2]): weak inhibition

- concentration at 1 month (clinical; Plasma anastrozole levels, range): 0.0091 to 0.057 µg/mL
- concentration at 1 month (clinical; Plasma anastrozole, post-escitalopram): 0.0404 µg/mL
- Basal plasma anastrozole level [9]: 52.2 ng/mL
- Plasma anastrozole, post-escitalopram [9]: 31.9 ng/mL
- Plasma anastrozole, post-escitalopram ([9]; 1 month): 27.9 ng/mL
Compound: CC(C)(C#N)c1cc(Cn2cncn2)cc(C(C)(C)C#N)c1 [Anastrozole, anastrozole]
- Patients with serum estradiol levels >10 pg/mL (serum estradiol; [10]): 25%
- Patients with serum estradiol levels ≤10 pg/mL (serum estradiol; [10]): 75%
- Anastrozole concentrations, inter-individual range ([8]; past studies): 0.0 to 98.8 ng/mL
- Anastrozole plasma steady-state concentration, mean ([8]; previous studies): 37.4 ng/mL
- Anastrozole plasma steady-state concentration, median ([8]; previous studies): 32.2 ng/mL

Compound: CNCCC(Oc1ccc(C(F)(F)F)cc1)c1ccccc1 (stereo not drawn) [fluoxetine]
- Ability to inhibit the CYP2D6 enzyme (CYP2D6 [2]): strong inhibition
